Literature values, collected in patent publication US20110177038A1, “Inhibition of Tumor Growth via Peroxiredoxin 3” (THE JOHNS HOPKINS UNIVERSITY, priority 2002, published 2011).

Tested on: MCF7/ADR cells
Conditions: free radical scavenger

CC(=O)C(=O)[O-].[Na+] [sodium pyruvate]
Inhibition of apoptosis after glucose withdrawal: sufficient to inhibit apoptosis
